Results published in ChEMBL document CHEMBL4610106, “Identification of the Clinical Development Candidate MRTX849, a Covalent KRASG12C Inhibitor for the Treatment of Cancer” (J Med Chem, 2020).

Assays:
GTPase KRas = GTPase KRas (Homo sapiens, UniProt P01116, G12C)
[1] = Hepatic extraction ratio in human liver microsomes; format: ADME, Microsome; conditions: read-out: ERH
[2] = Hepatic extraction ratio in human hepatocytes at 10 uM incubated for 2 hrs by LC-MS analysis; format: ADME, cell-based, Hepatocyte; conditions: read-out: ERH
[3] = Clearance in CD1 mouse at 3 mg/kg, iv; format: ADME, organism-based; conditions: in vivo
[4] = Volume of distribution at steady state in CD1 mouse at 3 mg/kg, iv; format: ADME, organism-based; conditions: in vivo, read-out: Vdss
[5] = Tmax in beagle dog at 10 mg/kg, po; format: ADME, organism-based, Canis lupus familiaris; conditions: in vivo
[6] = test system: GTPase KRas (Homo sapiens), P01116 [G12C]; test: In-vivo target engagement at KRAS G12C mutant in athymic nude-Foxn1nu mouse xenografted with human NCI-H358 cells assessed as KRAS G12C modification level in tumor lysate at 30 mg/kg, po dosed via gavage as single administration measured after 6 hrs by LC-MS analysis relative to control; format: functional, organism-based; conditions: Neoplasm
Chain of GTPase KRas (Homo sapiens), P01116 [G12C] (P01116 whole entry G12C): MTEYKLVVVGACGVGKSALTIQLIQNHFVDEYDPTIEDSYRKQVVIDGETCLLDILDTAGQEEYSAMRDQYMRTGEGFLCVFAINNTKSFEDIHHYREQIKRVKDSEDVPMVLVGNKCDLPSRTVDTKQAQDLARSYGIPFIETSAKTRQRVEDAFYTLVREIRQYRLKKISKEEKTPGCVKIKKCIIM

MIA PaCa-2 [7] = test: Antitumor activity against human MIAPaCa2 cells xenografted in athymic nude-Foxn1nu mouse assessed as induction of tumor regression at 30 mg/kg, po dosed daily via gavage for 16 days; format: functional
[8] = Half life in CD1 mouse at 3 mg/kg, iv; format: ADME, organism-based; conditions: in vivo
[9] = Cmax in CD1 mouse at 30 mg/kg, po; format: ADME, organism-based; set-up: dose 30 mg/kg, route oral; conditions: in vivo
[10] = Half life in beagle dog at 3 mg/kg, iv; format: ADME, organism-based, Canis lupus familiaris; conditions: in vivo
[11] = AUC (infinity) in beagle dog at 10 mg/kg, po; format: ADME, organism-based, Canis lupus familiaris; set-up: dose 10 mg/kg, time infinity, route oral; conditions: in vivo
[12] = test system: GTPase KRas (Homo sapiens), P01116 [G12C]; test: In-vivo target engagement at KRAS G12C mutant in athymic nude-Foxn1nu mouse xenografted with human NCI-H358 cells assessed as KRAS G12C modification level in tumor lysate at 100 mg/kg, po dosed via gavage as single administration measured after 6 hrs by LC-MS analysis relative to contro; format: functional, organism-based; conditions: Neoplasm
[13] = Volume of distribution at steady state in beagle dog at 3 mg/kg, iv; format: ADME, organism-based, Canis lupus familiaris; conditions: in vivo, read-out: Vdss
[14] = Half life in human whole blood at 5 uM by LC-MS/MS analysis; format: ADME, tissue-based
MIA PaCa-2 [15] = test: Antitumor activity against human MIAPaCa2 cells xenografted in athymic nude-Foxn1nu mouse assessed as induction of tumor regression at 30 mg/kg, po dosed daily via gavage for 16 days followed by drug cessation and measured up to 40 days; format: functional
[16] = Clearance in beagle dog at 3 mg/kg, iv; format: ADME, organism-based, Canis lupus familiaris; conditions: in vivo
[17] = Oral bioavailability in beagle dog at 10 mg/kg; format: ADME, organism-based, Canis lupus familiaris; conditions: in vivo
[18] = Half life in dog whole blood at 5 uM by LC-MS/MS analysis; format: ADME, tissue-based, Canis lupus familiaris
[19] = Cmax in beagle dog at 10 mg/kg, po; format: ADME, organism-based, Canis lupus familiaris; set-up: dose 10 mg/kg, route oral; conditions: in vivo
[20] = Half life in mouse whole blood at 5 uM by LC-MS/MS analysis; format: ADME, tissue-based
[21] = Oral bioavailability in CD1 mouse at 30 mg/kg; format: ADME, organism-based; conditions: in vivo
[22] = Tmax in CD1 mouse at 30 mg/kg, po; format: ADME, organism-based; conditions: in vivo
[23] = test system: GTPase KRas (Homo sapiens), P01116 [G12C]; test: In-vivo target engagement at KRAS G12C mutant in athymic nude-Foxn1nu mouse xenografted with human NCI-H358 cells assessed as KRAS G12C modification level in tumor lysate at 10 mg/kg, po dosed via gavage as single administration measured after 6 hrs by LC-MS analysis relative to control; format: functional, organism-based; conditions: Neoplasm
[24] = molecular target: Glutathione S-transferase P (Homo sapiens) (UniProt P09211); test: Drug metabolism in human whole blood assessed as GSTP1-1-mediated GSH conjugation; format: tissue-based
Chain of Glutathione S-transferase P (Homo sapiens) (P09211 2-210 limits assumed): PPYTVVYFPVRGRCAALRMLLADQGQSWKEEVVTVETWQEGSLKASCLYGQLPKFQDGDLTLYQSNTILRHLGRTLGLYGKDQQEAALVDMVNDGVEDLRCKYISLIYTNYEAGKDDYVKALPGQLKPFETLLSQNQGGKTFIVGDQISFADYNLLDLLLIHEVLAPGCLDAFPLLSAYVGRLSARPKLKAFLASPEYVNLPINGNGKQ

[25] = AUC (infinity) in CD1 mouse at 30 mg/kg, po; format: ADME, organism-based; set-up: dose 30 mg/kg, time infinity, route oral; conditions: in vivo
[26] = Cmax in CD1 mouse at 10 mg/kg, po; format: ADME, organism-based; set-up: dose 10 mg/kg, route oral; conditions: in vivo
[27] = Oral bioavailability in CD1 mouse at 10 mg/kg; format: ADME, organism-based; conditions: in vivo
[28] = AUC (infinity) in CD1 mouse at 10 mg/kg, po; format: ADME, organism-based; set-up: dose 10 mg/kg, route oral, time infinity; conditions: in vivo
[29] = Tmax in CD1 mouse at 10 mg/kg, po; format: ADME, organism-based; conditions: in vivo
[30] = Half life in presence of GSH in phosphate buffer at 1 uM at 37 degC by LC-MS/M analysis; format: physicochemical; conditions: phosphate buffer with GSH
[31] = Drug metabolism in mouse hepatocytes assessed as parent compound remaining at 10 uM incubated for 2 hrs by LC-MS analysis; format: ADME, cell-based, Hepatocyte; conditions: read-out: Stability

Chain of GTPase KRas (P01116 whole entry G12C): as the sequence (P01116 whole entry G12C) above

`C=CC(=O)N1CCN(c2nc(OC[C@@H]3CCCN3C)nc3c2CCN(c2cccc4cccc(OC)c24)C3)C[C@@H]1CC#N` showed an IC50 (GTPase KRas) of 22 nM.

`C=CC(=O)N1CCN(c2nc(OC[C@@H]3CCCN3C)nc3c2CCN(c2c(C)ccc4[nH]ncc24)C3)CC1` gave an IC50 (GTPase KRas) of 1500 nM.

With `C=CC(=O)N1CCN(c2nc(OC[C@@H]3CCCN3C)nc3c2CCN(c2c(C)c(C)cc4[nH]ncc24)C3)CC1` the hepatic extraction ratio [1] was under 0.55, the IC50 (GTPase KRas) was 254 nM and the hepatic extraction ratio at 2 h, 10 µM [2] was under 0.55.

Compound `C=CC(=O)N1CCN(c2nc(OC[C@@H]3CCCN3C)nc3c2CCN(c2cccc4cccc(Cl)c24)C3)C[C@@H]1CC#N` has a clearance [3] of 37.3 mL/min/kg, a Vd [4] of 0.867 L/kg and a Tmax [5] of 0.833 h. For the same compound, the Activity [6] was 89%, the Activity (MIA PaCa-2 [7]) was 100% and the half-life [8] was 0.496 h. The Cmax [9] was 2460 ng/mL, the half-life [10] was 0.826 h and the AUC(0-inf) [11] was 31.9 ng·h/mL. The Activity [12] was over 90%, the Vd [13] was 7.91 L/kg and the half-life at 5 µM [14] was 14 h. The Activity (MIA PaCa-2 [15]) was 100%, the clearance [16] was 225 mL/min/kg and the bioavailability [17] was 4.12%. The half-life at 5 µM [18] was 2 h, the Cmax [19] was 16.3 ng/mL and the half-life at 5 µM [20] was 5 h. For the same compound, the bioavailability [21] was 16.9%, the Tmax [22] was 0.25 h and the Activity [23] was 70%. For the same compound, the Drug metabolism [24] was “Metabolite detected” and the AUC(0-inf) [25] was 2270 ng·h/mL.

In the case of `C=CC(=O)N1CCN(c2nc(OC[C@@H]3CCCN3C)nc3c2CCN(c2cccc4ccccc24)C3)CC1`, the Vd [4] is reported as 0.996 L/kg, the Cmax [26] is reported as 131 ng/mL and the F [27] is reported as 13.9%. For the same compound, the AUC [28] was 302 ng·h/mL, the half-life [8] was 0.908 h and the Tmax [29] was 0.5 h. It also gave an IC50 (GTPase KRas) of 4400 nM and a half-life at 1 µM [30] of 17 h.

Work on `C=CC(=O)N1CCN(c2nc(OC[C@@H]3CCCN3C)nc3c2CCN(c2cccc4ccccc24)C3)C(CCO)C1` (some centres not stated) yielded an IC50 (GTPase KRas) of 4840 nM.

For `C=CC(=O)N1CCN(c2nc(OC[C@@H]3CCCN3C)nc3c2CCN(c2cccc4ccccc24)C3)CC1CC#N` (some centres not stated), the IC50 (GTPase KRas) was 14 nM.

`C=CC(=O)N1CCN(c2nc(OC[C@@H]3CCCN3C)nc3c2CCN(c2cc(O)cc4ccccc24)C3)CC1` gave a remaining at 2 h, 10 µM [31] of 4%.

Work on `C=CC(=O)N1CCN(c2nc(OC[C@@H]3CCCN3C)nc3c2CCN(c2cccc4ccccc24)C3)C[C@H]1CC#N` yielded an IC50 (GTPase KRas) of 1020 nM and a half-life at 1 µM [30] of 1 h.

`C=CC(=O)N1CCN(c2nc(OC[C@@H]3CCCN3C)nc3c2CCN(c2cccc4ccccc24)C3)CC1CO` (some centres not stated) gave an IC50 (GTPase KRas) of 4630 nM.

For `C=CC(=O)N1CCN(c2nc(OC[C@@H]3CCCN3C)nc3c2CCN(c2cccc4cccc(CC)c24)C3)C[C@@H]1CC#N`, the IC50 (GTPase KRas) was 6 nM.

`CN1CCC[C@H]1COc1nc2c(c(N3CCN(C(=O)/C=C/CF)[C@@H](CC#N)C3)n1)CCN(c1cccc3cccc(Cl)c13)C2` showed a half-life at 5 µM [14] of over 50 h, an IC50 (GTPase KRas) of 3 nM and a half-life at 5 µM [18] of 9 h. It also gave a half-life at 5 µM [20] of 11 h.
